Active and inactive are the calls of the source.
Assays:
Insulin-degrading enzyme [1] = biological target: T1, Insulin-degrading enzyme (Homo sapiens, UniProt P14735); assay: activators of endogenous IDE in HEK cells, dose response, cell-based, fluorescence polarization (AID 588439); format: functional
T1 sequence (P14735 whole entry): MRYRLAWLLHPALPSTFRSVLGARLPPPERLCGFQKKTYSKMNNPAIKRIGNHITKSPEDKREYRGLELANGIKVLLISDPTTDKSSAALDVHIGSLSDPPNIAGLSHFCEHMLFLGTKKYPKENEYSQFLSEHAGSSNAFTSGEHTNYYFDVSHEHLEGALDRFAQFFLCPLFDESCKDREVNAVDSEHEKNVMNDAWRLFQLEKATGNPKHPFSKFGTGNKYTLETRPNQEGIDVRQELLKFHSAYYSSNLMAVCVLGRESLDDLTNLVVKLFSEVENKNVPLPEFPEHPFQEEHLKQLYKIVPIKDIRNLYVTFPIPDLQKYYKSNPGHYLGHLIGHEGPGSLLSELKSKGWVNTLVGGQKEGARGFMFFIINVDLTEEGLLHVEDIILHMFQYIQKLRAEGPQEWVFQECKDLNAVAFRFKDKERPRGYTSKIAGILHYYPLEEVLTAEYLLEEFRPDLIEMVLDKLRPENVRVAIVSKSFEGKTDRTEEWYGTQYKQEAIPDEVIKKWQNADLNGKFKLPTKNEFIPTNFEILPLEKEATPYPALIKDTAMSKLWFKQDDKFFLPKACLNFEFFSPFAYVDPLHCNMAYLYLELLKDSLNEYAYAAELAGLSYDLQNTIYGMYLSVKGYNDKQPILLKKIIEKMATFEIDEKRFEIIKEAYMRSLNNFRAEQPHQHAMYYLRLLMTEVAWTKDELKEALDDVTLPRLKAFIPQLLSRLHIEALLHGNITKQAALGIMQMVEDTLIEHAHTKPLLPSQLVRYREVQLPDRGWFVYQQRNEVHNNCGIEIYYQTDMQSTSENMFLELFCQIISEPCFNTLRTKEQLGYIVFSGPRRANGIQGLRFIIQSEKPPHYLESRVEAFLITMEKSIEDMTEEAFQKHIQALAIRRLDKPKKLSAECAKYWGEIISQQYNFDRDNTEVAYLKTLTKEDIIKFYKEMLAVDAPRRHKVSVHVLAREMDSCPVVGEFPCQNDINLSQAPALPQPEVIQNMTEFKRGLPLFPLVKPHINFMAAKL

[2] = biological target: Dual specificity protein phosphatase 3 (Homo sapiens, UniProt P51452); assay: VHR1 phosphatase inhibitors, primary screen, biochemical, absorbance, uHTS (AID 1654)
Sequence of Dual specificity protein phosphatase 3 (P51452 whole entry): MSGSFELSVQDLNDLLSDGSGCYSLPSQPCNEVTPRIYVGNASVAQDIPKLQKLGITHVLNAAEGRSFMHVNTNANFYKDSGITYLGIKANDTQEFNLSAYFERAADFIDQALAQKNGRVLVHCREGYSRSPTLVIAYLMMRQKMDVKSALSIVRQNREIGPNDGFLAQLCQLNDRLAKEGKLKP

Insulin-degrading enzyme [3] = biological target: T1, Insulin-degrading enzyme; assay: activators of recombinant IDE enzyme, dose response, counter-screen for IDE activator project, biochemical, fluorescence polarization (AID 588681)
[4] = biological target: T2, Apoptotic protease-activating factor 1 (Homo sapiens, UniProt O14727); format: functional
T2 sequence (O14727 whole entry): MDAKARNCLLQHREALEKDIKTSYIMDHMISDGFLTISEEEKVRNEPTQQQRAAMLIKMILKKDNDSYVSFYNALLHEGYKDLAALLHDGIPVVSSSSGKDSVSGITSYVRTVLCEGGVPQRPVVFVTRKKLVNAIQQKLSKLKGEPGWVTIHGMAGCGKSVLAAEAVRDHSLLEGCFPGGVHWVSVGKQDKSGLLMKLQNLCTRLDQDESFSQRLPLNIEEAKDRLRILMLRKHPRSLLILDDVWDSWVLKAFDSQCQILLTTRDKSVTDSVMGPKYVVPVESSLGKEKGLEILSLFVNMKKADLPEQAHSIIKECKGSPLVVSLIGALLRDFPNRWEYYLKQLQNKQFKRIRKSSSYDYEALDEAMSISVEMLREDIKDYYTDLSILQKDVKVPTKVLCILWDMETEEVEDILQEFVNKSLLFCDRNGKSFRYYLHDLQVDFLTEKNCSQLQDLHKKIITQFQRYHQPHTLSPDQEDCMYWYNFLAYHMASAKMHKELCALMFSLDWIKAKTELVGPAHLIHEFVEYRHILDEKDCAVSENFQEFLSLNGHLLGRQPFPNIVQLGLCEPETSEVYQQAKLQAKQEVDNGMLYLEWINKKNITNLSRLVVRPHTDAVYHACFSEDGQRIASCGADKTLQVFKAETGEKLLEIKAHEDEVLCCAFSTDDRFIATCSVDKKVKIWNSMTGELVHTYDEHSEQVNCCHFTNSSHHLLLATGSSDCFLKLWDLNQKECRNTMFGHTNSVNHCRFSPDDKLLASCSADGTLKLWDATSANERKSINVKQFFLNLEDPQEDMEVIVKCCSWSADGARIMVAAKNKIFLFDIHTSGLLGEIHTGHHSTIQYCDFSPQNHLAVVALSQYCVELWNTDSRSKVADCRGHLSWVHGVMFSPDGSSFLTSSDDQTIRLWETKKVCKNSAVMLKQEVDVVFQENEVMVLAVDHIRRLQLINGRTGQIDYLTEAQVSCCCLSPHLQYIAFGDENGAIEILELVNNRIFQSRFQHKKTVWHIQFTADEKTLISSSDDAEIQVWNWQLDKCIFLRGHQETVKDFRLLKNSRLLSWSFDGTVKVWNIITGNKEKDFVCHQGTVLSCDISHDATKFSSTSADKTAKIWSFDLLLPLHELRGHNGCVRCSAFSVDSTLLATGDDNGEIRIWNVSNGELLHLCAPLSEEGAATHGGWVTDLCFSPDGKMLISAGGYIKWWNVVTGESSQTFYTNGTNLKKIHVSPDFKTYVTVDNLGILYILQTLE

[5] = biological target: Serine/threonine-protein phosphatase (Homo sapiens, UniProt Q9BPW0); assay: PP5 phosphatase inhibitors, dose response, biochemical, fluorescence (AID 2395)
Sequence of Serine/threonine-protein phosphatase (Q9BPW0 whole entry): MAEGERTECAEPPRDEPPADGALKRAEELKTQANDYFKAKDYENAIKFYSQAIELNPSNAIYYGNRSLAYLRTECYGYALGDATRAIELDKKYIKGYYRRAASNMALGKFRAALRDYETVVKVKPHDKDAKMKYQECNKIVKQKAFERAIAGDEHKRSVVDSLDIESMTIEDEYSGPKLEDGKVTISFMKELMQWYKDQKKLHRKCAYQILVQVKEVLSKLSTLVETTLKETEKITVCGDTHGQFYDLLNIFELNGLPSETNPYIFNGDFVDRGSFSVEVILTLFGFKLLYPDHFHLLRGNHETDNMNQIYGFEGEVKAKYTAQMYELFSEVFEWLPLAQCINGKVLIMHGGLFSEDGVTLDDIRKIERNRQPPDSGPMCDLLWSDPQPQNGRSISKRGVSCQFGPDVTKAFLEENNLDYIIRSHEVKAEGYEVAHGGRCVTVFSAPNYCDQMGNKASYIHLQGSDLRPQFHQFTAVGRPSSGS

[6] = biological target: Tyrosine-protein kinase JAK2 (Homo sapiens, UniProt O60674); format: functional;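 also: JAK2 tested as one member of a kinase panel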
[7] = biological target: Tyrosine-protein kinase Lck (Homo sapiens, UniProt P06239); format: functional;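 also: lck was assayed as one member of a kinase panel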
Sequence of Tyrosine-protein kinase Lck (P06239 whole entry): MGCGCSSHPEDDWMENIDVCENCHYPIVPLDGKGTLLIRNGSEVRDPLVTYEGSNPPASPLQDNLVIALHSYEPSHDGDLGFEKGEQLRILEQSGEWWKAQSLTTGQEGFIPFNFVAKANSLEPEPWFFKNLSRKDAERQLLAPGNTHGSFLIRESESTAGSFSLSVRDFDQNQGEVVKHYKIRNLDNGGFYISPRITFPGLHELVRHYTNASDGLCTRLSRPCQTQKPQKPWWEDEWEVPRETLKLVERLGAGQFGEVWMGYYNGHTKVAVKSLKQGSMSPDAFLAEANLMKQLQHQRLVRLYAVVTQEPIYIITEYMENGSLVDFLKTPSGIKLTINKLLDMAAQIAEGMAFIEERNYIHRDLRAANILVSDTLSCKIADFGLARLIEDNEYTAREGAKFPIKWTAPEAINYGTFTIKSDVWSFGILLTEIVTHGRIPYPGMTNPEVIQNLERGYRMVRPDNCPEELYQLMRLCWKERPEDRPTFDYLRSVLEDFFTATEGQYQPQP

[8] = biological target: BDNF/NT-3 growth factors receptor (Homo sapiens, UniProt Q16620); format: functional;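 also: NTRK2 measured as one member of a broad kinome-wide kinase profiling panel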
Sequence of BDNF/NT-3 growth factors receptor (Q16620 whole entry): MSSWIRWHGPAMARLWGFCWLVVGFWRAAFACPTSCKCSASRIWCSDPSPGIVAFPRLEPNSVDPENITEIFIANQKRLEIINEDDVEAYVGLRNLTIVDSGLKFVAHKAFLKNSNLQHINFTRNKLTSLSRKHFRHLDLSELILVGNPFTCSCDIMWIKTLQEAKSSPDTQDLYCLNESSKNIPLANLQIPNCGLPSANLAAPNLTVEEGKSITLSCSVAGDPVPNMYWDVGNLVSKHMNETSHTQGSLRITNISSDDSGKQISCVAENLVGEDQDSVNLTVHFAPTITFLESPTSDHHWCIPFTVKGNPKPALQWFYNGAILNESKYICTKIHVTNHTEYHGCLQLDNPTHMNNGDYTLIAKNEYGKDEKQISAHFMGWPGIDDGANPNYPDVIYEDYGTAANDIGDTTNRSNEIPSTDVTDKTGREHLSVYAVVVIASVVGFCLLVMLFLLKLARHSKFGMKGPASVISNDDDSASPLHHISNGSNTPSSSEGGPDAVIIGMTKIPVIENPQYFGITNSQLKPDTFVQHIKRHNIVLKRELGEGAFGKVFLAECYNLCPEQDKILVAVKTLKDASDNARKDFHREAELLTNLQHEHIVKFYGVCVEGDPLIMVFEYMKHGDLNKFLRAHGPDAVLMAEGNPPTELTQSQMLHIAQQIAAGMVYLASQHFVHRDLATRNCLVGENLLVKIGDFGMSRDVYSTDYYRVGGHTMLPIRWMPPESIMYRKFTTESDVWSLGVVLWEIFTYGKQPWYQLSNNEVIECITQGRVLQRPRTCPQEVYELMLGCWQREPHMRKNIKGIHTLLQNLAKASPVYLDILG

[9] = biological target: Platelet-derived growth factor receptor beta (Homo sapiens, UniProt P09619); format: functional;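 also: value comes from a kinome panel, with PDGFRB tested as one panel member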
[10] = biological target: Insulin-like growth factor 1 receptor (Homo sapiens, UniProt P08069); assay: Navigating the Kinome. Panel member name: IGF1R; format: functional
Activin receptor type-1 = Activin receptor type-1 (Homo sapiens, UniProt Q04771); assay: Navigating the Kinome. Panel member name: ACVR1; format: functional
[11] = biological target: cAMP-dependent protein kinase catalytic subunit PRKX (Homo sapiens, UniProt P51817); format: functional
Sequence of cAMP-dependent protein kinase catalytic subunit PRKX (P51817 whole entry): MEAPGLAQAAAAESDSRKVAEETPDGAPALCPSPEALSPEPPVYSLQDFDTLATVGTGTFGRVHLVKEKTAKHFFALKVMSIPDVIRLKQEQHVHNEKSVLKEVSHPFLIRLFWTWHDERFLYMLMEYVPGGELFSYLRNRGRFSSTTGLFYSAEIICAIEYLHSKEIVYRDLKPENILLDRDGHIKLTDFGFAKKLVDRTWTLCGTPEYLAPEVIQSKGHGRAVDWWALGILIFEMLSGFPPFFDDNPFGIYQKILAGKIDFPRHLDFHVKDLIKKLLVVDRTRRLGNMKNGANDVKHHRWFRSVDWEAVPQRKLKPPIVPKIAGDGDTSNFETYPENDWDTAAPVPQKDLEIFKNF

[12] = biological target: Dual specificity protein kinase CLK4 (Homo sapiens, UniProt Q9HAZ1); format: functional
[13] = biological target: ALK tyrosine kinase receptor (Homo sapiens, UniProt Q9UM73); format: functional;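 also: ALK tested as one member of a kinase panel screen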
Sequence of ALK tyrosine kinase receptor (Q9UM73 whole entry): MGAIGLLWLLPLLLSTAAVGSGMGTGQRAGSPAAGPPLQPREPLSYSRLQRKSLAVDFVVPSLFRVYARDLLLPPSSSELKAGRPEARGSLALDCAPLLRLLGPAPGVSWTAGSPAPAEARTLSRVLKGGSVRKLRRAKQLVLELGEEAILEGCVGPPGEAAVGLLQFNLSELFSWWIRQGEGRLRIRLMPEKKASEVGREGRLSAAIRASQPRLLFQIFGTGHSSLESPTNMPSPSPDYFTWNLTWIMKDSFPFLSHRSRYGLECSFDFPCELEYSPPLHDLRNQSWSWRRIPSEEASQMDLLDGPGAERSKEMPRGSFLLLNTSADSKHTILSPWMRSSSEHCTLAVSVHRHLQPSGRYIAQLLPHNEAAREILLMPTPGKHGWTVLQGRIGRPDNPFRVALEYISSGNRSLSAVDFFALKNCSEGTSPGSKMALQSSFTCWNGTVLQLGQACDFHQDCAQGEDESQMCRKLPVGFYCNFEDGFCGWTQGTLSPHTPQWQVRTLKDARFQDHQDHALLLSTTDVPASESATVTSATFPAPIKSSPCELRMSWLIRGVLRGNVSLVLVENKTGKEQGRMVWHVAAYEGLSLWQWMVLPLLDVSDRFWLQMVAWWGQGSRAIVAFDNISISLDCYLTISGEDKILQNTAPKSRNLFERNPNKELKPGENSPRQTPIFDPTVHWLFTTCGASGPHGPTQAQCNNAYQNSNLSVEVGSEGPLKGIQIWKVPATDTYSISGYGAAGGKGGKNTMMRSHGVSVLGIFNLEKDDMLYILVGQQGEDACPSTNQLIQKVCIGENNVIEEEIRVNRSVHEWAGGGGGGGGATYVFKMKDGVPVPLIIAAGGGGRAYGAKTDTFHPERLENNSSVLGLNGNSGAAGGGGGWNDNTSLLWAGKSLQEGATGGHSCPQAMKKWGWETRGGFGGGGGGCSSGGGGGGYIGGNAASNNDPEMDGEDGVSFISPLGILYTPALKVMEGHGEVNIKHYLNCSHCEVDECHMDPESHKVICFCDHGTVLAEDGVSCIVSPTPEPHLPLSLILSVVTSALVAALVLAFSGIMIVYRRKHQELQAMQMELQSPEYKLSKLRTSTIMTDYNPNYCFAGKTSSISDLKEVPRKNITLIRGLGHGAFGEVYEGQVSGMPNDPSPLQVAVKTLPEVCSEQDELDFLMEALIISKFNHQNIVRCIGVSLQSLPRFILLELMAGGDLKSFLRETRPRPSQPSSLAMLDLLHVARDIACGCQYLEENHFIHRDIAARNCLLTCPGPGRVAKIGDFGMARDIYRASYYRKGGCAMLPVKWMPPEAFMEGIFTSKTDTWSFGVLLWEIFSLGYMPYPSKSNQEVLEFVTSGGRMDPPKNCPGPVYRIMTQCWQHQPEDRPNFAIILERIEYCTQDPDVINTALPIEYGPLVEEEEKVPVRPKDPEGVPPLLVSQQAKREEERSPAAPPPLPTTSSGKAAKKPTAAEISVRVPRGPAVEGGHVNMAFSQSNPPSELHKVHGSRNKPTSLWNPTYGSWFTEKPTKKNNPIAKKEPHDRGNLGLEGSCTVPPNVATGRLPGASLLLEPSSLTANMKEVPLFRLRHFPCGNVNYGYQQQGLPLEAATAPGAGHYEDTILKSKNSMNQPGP

[14] = biological target: Protein kinase C theta type (Homo sapiens, UniProt Q04759); assay: Navigating the Kinome. Panel member name: PRKCQ; format: functional
Sequence of Protein kinase C theta type (Q04759 whole entry): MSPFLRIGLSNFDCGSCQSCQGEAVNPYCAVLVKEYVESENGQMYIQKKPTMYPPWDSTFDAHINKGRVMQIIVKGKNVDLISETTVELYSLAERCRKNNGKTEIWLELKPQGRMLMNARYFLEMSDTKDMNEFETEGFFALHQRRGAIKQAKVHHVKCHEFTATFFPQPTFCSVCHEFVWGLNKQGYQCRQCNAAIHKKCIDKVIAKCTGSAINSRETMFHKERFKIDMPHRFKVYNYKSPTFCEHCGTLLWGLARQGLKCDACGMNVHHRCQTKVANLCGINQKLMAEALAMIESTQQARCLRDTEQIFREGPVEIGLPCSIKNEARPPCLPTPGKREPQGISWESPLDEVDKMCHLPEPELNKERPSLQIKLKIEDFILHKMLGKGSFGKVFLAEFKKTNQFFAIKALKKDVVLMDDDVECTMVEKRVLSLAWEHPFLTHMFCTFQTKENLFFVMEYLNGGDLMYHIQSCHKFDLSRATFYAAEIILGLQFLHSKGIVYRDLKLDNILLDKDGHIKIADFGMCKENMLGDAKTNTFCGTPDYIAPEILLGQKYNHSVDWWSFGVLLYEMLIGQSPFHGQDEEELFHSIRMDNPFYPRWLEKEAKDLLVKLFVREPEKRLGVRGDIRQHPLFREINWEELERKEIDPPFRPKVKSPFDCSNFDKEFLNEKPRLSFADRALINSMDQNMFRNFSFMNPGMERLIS

**Q.** O=S(=O)(O)c1cccc2c(N=Nc3ccc(O)c4ncccc34)cccc12 was tested. Which EC50 (Insulin-degrading enzyme [1]) did it give?
**A.** Its EC50 is 8.8 µM (active).

**Q.** What about the IC50 [2] of the same compound?
**A.** Its IC50 is 2.28 µM (active).

**Q.** And the EC50 (Insulin-degrading enzyme [3])?
**A.** Its EC50 is 17.3 µM (inactive).

**Q.** With O=C(NNc1cc(N2CCCC2)nc(N2CCCC2)n1)c1ccc([N+](=O)[O-])cc1 as the compound, how does the IC50 [4] read?
**A.** The IC50 was 11.9 µM (active).

**Q.** And the IC50 [5]?
**A.** The IC50 was > 67 µM (not active).

**Q.** Which Ki [6] does the source give for O=C(Cc1cccs1)Nc1nc2ccccc2s1 here?
**A.** The Ki was > 2.51 µM (inactive).

**Q.** What about the Ki [7] of the same compound?
**A.** The Ki was > 6.31 µM (inactive).

**Q.** What about the Ki [8] of the same compound?
**A.** The Ki was > 3.98 µM (inactive).

**Q.** What about the Ki [9] of the same compound?
**A.** The Ki was > 2 µM (inactive).

**Q.** And the Ki [10]?
**A.** Its Ki is > 2.51 µM (inactive).

**Q.** And the Ki (Activin receptor type-1)?
**A.** Its Ki is 3.16 µM (active).

**Q.** What about the Ki [11] of the same compound?
**A.** Its Ki is 1.26 µM (active).

**Q.** What about the Ki [12] of the same compound?
**A.** The Ki was 501 nM (active).

**Q.** What about the Ki [13] of the same compound?
**A.** Its Ki is 2.51 µM (active).

**Q.** What about the Ki [14] of the same compound?
**A.** The Ki was 1.58 µM (active).

— ChEMBL document CHEMBL1201862, “PubChem BioAssay data set” (2004)
